How the values were obtained:
human CYP2C19 = human CYP2C19 (Homo sapiens, UniProt P33261)
human CYP2D6 = human CYP2D6 (Homo sapiens, UniProt P10635)
human CYP1A2 = molecular target: T1, human CYP1A2 (Homo sapiens, UniProt P05177)
T1 sequence (P05177 1-516): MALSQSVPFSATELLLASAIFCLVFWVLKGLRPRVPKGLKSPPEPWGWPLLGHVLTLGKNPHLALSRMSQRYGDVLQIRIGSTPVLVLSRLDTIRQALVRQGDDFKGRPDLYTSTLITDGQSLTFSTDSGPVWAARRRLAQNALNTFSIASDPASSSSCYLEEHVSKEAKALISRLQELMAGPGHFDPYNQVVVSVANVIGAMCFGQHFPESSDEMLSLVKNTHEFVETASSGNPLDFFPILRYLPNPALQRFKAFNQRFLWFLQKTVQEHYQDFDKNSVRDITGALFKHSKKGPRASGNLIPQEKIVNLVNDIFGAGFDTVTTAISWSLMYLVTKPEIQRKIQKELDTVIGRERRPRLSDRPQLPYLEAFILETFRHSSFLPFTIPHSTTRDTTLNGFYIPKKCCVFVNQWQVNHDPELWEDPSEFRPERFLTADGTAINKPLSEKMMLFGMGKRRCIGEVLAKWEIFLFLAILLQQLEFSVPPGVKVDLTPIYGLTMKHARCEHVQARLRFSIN

CYP3A4 = CYP3A4 (Homo sapiens, UniProt P08684)
Chain of CYP3A4 (P08684 whole entry): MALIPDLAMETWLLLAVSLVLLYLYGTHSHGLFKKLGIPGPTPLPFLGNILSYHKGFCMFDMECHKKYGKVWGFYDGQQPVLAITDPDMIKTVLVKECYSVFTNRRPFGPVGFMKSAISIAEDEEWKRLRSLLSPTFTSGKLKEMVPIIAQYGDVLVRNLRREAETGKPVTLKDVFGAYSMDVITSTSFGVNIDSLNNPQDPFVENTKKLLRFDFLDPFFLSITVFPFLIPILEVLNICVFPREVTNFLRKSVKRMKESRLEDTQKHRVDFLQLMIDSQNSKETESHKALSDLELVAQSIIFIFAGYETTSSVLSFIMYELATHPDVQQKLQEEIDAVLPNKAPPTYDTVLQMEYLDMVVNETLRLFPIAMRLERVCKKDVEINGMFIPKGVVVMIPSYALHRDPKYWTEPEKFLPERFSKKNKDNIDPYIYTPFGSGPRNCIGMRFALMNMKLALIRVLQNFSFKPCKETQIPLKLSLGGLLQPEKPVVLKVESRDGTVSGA

human CYP2C9 = human CYP2C9 (Homo sapiens, UniProt P11712)
Chain of human CYP2C9 (P11712 whole entry): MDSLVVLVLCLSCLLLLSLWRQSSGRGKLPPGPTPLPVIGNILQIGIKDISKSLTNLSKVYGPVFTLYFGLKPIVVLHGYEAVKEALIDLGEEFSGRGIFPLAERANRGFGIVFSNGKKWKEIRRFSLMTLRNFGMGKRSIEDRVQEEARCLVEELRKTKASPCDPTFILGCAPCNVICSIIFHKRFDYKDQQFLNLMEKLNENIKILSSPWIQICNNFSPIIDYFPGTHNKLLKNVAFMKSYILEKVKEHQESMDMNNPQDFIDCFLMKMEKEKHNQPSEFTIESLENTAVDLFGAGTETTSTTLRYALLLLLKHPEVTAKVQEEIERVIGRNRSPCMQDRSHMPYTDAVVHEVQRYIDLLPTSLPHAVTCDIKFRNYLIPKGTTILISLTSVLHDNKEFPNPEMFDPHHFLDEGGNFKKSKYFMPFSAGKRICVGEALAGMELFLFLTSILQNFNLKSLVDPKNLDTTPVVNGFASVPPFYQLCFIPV

Chain of human CYP2C19 (P33261 whole entry): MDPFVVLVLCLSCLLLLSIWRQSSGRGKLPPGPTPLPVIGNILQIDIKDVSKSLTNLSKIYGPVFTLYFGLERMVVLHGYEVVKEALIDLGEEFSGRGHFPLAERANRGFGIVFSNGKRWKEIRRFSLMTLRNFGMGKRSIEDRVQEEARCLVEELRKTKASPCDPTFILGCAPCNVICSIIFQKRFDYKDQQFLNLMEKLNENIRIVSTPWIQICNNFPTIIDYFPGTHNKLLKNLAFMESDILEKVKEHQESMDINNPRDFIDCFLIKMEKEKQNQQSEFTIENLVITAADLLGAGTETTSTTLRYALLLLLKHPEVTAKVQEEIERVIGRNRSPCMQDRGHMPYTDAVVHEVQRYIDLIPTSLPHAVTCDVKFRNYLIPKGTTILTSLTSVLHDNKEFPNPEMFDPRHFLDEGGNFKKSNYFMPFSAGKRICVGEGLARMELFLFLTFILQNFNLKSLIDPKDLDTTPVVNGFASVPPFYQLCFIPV
Chain of human CYP2D6 (P10635 whole entry): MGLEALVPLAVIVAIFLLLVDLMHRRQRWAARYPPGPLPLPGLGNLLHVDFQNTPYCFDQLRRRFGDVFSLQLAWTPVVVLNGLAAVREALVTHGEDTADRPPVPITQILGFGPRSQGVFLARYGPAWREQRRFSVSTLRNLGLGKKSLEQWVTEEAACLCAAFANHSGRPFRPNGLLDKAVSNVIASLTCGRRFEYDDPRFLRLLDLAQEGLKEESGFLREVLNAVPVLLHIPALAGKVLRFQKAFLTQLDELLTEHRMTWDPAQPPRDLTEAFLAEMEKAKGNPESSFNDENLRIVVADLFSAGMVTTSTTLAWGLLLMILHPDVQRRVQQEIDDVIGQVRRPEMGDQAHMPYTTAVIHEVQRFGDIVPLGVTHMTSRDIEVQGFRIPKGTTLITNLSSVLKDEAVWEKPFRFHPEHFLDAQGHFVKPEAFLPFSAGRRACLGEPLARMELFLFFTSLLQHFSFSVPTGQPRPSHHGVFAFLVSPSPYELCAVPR

SMILES | AC50 (human CYP2C19) [µM] | AC50 (human CYP2D6) [µM] | AC50 (human CYP1A2) [µM] | AC50 (CYP3A4) [µM] | AC50 (human CYP2C9) [µM] | CYP2C19 AC50 (half-maximal activity concentration) (human CYP2C19) | CYP2D6 AC50 (half-maximal activity concentration) (human CYP2D6) | CYP1A2 AC50 (half-maximal activity concentration) (human CYP1A2) | CYP3A4 AC50 (half-maximal activity concentration) (CYP3A4) | CYP2C9 AC50 (half-maximal activity concentration) (human CYP2C9)
Cl.O.c1cnc2c(c1)ccc1cccnc12 | 8.94 | 38.5 | 10.6 | 38.5 | 4.59 | – | – | – | – | –
Clc1cnc(Oc2ccc(Oc3ncc(Cl)cc3Cl)cc2)c(Cl)c1 | – | – | – | – | 2.34 | Inactive | Inactive | Inactive | Inconclusive activator | –
C1CC(COCC2CO2)CCC1COCC1CO1 (stereo not drawn) | – | – | – | 73.9 | 56.6 | Inconclusive inhibitor | Inactive | Inconclusive inhibitor | – | –
CC(C)(C)C1=CC(=O)C(C(C)(C)C)=CC1=O | 7.8 | – | 16.1 | 6.47 | 20.8 | – | Inconclusive inhibitor | – | – | –
O=S1(=O)CC(Cl)(Cl)C(Cl)(Cl)C1 | 60.4 | 48.8 | 31.2 | 30.8 | 27.5 | – | – | – | – | –
Cl.Nc1c2ccccc2nc2ccccc12.O | – | 12.9 | 2.13 | – | 28.8 | Inconclusive activator | – | – | Inactive | –
CCCCCCCCCCCCCC[N+](C)(C)Cc1ccccc1.O.O.[Cl-] | – | 2.01 | – | 11.3 | 40.7 | Inactive | – | Inactive | – | –
CCOC(=O)CC(=O)Cc1cc(F)c(Cl)nc1Cl | – | – | 65.1 | 49.1 | 46.3 | Inconclusive inhibitor | Inactive | – | – | –
CCOC(=O)N1CCC(n2c(=O)[nH]c3cc(Cl)ccc32)CC1 | 16.6 | – | 22.6 | 6.72 | 9.24 | – | Inactive | – | – | –
CC1=Nc2ccc3ccccc3c2C1(C)C [1,1,2-Trimethyl-1H-benzo[e]indole] | 10.1 | 54 | 26.7 | 2.84 | 51.7 | – | – | – | – | –
c1ccc(SCCSc2ccccc2)cc1 [1,2-Bis(phenylthio)ethane] | 3.06 | 56.1 | 29.2 | 8.36 | 31.4 | – | – | – | – | –
O=C(O)c1ccc(OCCCOc2ccc(C(=O)O)cc2)cc1 [1,3-Bis(4-carboxyphenoxy)propane] | – | 8.08 | – | 26.4 | – | Inactive | – | Inactive | – | Inactive
C=C(C)C(=O)OCCCCCCOC(=O)C(=C)C [1,6-Hexanediol dimethacrylate] | 51.5 | – | 37 | 16.9 | 37.4 | – | Inactive | – | – | –
C=C(C)C(=O)OCCCCCCCCCCOC(=O)C(=C)C [1,10-Decanediol dimethacrylate] | – | 37 | 40.1 | 46.2 | – | Inconclusive inhibitor | – | – | – | Inconclusive inhibitor
BrCc1cccc(Oc2ccccc2)c1 [1-(Bromomethyl)-3-phenoxybenzene] | 19.9 | 50.3 | 41.5 | 80 | 82.9 | – | – | – | – | –
CCCCCCCCS(=O)(=O)Cl [1-Octanesulfonyl chloride] | – | – | – | 22.9 | 28.7 | Inconclusive inhibitor | Inconclusive inhibitor | Inactive | – | –
O=C1NC(=O)c2cccc3cccc1c23 [1H-Benzo[de]isoquinoline-1,3(2H)-dione] | – | – | 2.74 | – | 33.1 | Inconclusive inhibitor | Inactive | – | Inconclusive activator | –
COC(OC)(C(=O)c1ccccc1)c1ccccc1 [2,2-Dimethoxy-1,2-diphenylethanone] | 15.9 | 34.6 | – | 10.2 | 22.5 | – | – | Inactive | – | –
O=C(c1ccc(O)c(O)c1)c1ccc(O)cc1O [2,3',4,4'-Tetrahydroxybenzophenone] | 33.2 | 7.5 | 34.3 | 18.4 | 4.22 | – | – | – | – | –
O=C(O)c1cc2ccccc2nc1C(=O)O [2,3-Quinolinedicarboxylic acid] | – | – | 47.9 | 25.2 | – | Inactive | Inactive | – | – | Inactive
O=C(c1ccc(O)cc1)c1ccc(O)cc1O [2,4,4'-Trihydroxybenzophenone] | – | 33 | 34.3 | 19.4 | 3.18 | Inactive | – | – | – | –
O=S(=O)(O)c1cc(Cl)c(Cl)cc1Cl [2,4,5-Trichlorobenzenesulfonic acid] | – | – | – | 48.3 | 33 | Inconclusive inhibitor | Inconclusive | Inconclusive inhibitor | – | –
CCOC(=O)COc1ccc(Cl)cc1Cl [2,4-D-ethyl ester] | 26.8 | – | 30.8 | 17.1 | 55.5 | – | Inconclusive inhibitor | – | – | –
O=C([O-])CCCOc1ccc(Cl)cc1Cl.[Na+] [2,4-DB-sodium] | – | – | – | 46.2 | 60.6 | Inconclusive inhibitor | Inactive | Inactive | – | –
COc1ccc(C(=O)c2ccc(O)cc2)c(OC)c1 [2,4-Dimethoxy-4'-hydroxy benzophenone] | 6.52 | – | 49.2 | 31.7 | 0.64 | – | Inconclusive inhibitor | – | – | –
CCCC(C)c1ccccc1O (stereo not drawn) [2-(1-Methylbutyl)phenol] | 10.9 | – | 56.6 | – | 49 | – | Inactive | – | Inactive | –
c1ccc(CCCc2ccccn2)cc1 [2-(3-Phenylpropyl)pyridine] | 7.19 | 53.2 | 31.2 | 8.01 | 33.1 | – | – | – | – | –
Nc1ccccc1S(=O)(=O)c1ccccc1 [2-(Phenylsulfonyl)aniline] | 17.8 | – | 50.5 | 71 | 8.25 | – | Inactive | – | – | –
CC(C)c1ccc2sc3ccccc3c(=O)c2c1 [2-(Propan-2-yl)-9H-thioxanthen-9-one] | 13.1 | 27.5 | 7.68 | 7.71 | 15.6 | – | – | – | – | –
NS(=O)(=O)c1ccccc1OC(F)(F)F [2-(Trifluoromethoxy)benzenesulfonamide] | – | – | 51.9 | – | 62.1 | Inconclusive inhibitor | Inactive | – | Inactive | –
